Experimental data as given in ChEMBL document CHEMBL1134925, “Exiguamide, a new spirocyclic sesquiterpene from the marine sponge Geodia exigua that inhibits cell fate specification during sea urchin embryogenesis” (Bioorg Med Chem Lett, 2002).
Active and inactive are the calls of the source. No cut-off for these calls is given here.

System: Hemicentrotus pulcherrimus
Assay: Ability of the embryo (sea urchin, Hemicentrotus pulcherrimus) to form spicule deficient plutei when treated with the compound at a concentration of 0.4-12 uM; not active
Format: functional, organism-based

For `CC1=C[C@@]2(CC1)[C@H](NC=O)[C@H](C(C)C)CC[C@@H]2C`, the Activity was “inactive”.
